SMILES strings stand for the structures.

endogenous CGRP receptor, sequence (Q16602 23-461): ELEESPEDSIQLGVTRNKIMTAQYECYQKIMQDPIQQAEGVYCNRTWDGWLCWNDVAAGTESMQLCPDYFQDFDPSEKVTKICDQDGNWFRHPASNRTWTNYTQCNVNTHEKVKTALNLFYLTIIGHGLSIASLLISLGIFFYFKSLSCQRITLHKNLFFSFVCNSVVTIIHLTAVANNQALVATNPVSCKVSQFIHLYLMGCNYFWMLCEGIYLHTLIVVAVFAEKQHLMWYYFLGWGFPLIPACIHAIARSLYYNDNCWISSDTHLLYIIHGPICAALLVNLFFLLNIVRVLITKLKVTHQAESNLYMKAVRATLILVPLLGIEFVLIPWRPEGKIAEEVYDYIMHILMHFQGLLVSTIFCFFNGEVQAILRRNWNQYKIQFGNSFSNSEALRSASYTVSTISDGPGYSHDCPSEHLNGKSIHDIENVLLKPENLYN
endogenous CGRP receptor, sequence (O60894 27-148): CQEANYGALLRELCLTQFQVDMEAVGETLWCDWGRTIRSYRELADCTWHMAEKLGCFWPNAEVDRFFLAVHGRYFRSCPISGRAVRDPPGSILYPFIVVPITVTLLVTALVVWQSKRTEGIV

The target of this experiment is endogenous CGRP receptor (Homo sapiens, UniProt O60894+Q16602). The experiment in a line: CGRP functional antagonism using SK-N-MC-BLA (4C10), β-lactamase transcriptional reporter assay. The experiment is classed as cell-based. To be noted: SK-N-MC (4C10) cells, inhibition of β-lactamase expression in the presence of 200 pM CGRP. From the text: Measuring CGRP Functional Antagonism Using SK-N-MC-BLA (4C10):
CGRP functional antagonism was characterized in a cell based transcriptional assay using a recombinant SK-N-MC line. To introduce the transcriptional reporter system, SK-N-MC cell line was transduced with a retroviral vector containing β-lactamase gene downstream of cAMP responsive promoter. The expression of β-lactamase is triggered by cAMP increase that is a downstream event of activation of endogenous CGRP receptor. Single clones were separated using Fluorescent Activated Cell Sorting (FACS) based on CGRP induced β-lactamase activity. β-lactamase activity was measured using a fluorescence energy transfer (FRET) dye, CCF4. […] To evaluate functional antagonist activity of compounds in SK-N-MC (4C10) line, compounds were evaluated for their inhibition of β-lactamase expression in the presence of CGRP.
SK-N-MC (4C10) was cultured in Minimal Essential Media (MEM) (Invitrogen) supplemented with 1 mM non-essential amino acids solution (Invitrogen), 100 units/ml Penicillin-Streptomycin (Invitrogen), 1 mM sodium pyruvate (Invitrogen) and 10% fetal bovine serum. For the β-lactamase assay, low serum, 1% FBS in MEM was used. 30,000 cells were plated into each wells of poly-D-lysine coated 384-well plate (Becton Dickinson) a day prior to the assay. SK-N-MC (4C10) was preincubated with compounds for 30 min before the addition of 200 pM CGRP. The assay was incubated for 3 hours at 37° C. to allow β-lactamase expression. CCF4 dye was added and incubated for 2 hours at room temperature. […] Curve fitting and IC50 calculation were carried about using MOD3.
Turning to `CCOCCCN1C(=O)C(CC(=O)N2CCC(N3CCc4ccccc4NC3=O)CC2)SC1c1ccccc1` (stereo not drawn) [Compound 4], the IC50 (commonly the midpoint of a concentration-inhibition curve) is below 1000 nM. On to `CC(C)CCN1C(=O)C(CC(=O)N2CCC(N3Cc4ccccc4NC3=O)CC2)SC1c1ccc(S(C)(=O)=O)cc1` (stereo not drawn) [Compound 5], for which the 50% inhibitory concentration (IC50) is 1000 to 5000 nM. Then `CC(C)CCN1C(=O)C(CC(=O)N2CCC(N3Cc4ccccc4NC3=O)CC2)SC1CCc1ccccc1` (stereo not drawn) [Compound 6], with below 1000 nM. Then `CC(C)(C)CCN1C(=O)C(CC(=O)N2CCC(N3CCc4ccccc4NC3=O)CC2)SC1c1ccccc1N1CCCCC1` (stereo not drawn) [Compound 7], with below 1000 nM; and `CC(C)CCN1C(=O)C(CC(=O)N2CCC(N3CCc4ccccc4NC3=O)CC2)SC1[C@@H](C)c1ccccc1` (stereo partly drawn) [Compound 11], with below 1000 nM; and `CC(C)CCN1C(=O)C(CC(=O)N2CCC(N3CCc4ccccc4NC3=O)CC2)SC1c1cc(C(F)(F)F)ccc1F` (stereo not drawn) [Compound 13], with below 1000 nM. Regarding `COc1ccc(C2SC(CC(=O)N3CCC(N4Cc5ccccc5NC4=O)CC3)C(=O)N2CCC(C)C)cc1F` (stereo not drawn) [Compound 18], the IC50 was in the range of 1000 to 5000 nM. Consider `Cc1cc(C)c(C2SC(CC(=O)N3CCC(N4CCc5ccccc5NC4=O)CC3)C(=O)N2CCC(C)C)c(C)c1` (stereo not drawn) [Compound 21], for which the IC50 is below 1000 nM. Then `CN1CCN(c2ccccc2[C@H]2SC(CC(=O)N3CCC(n4c(=O)[nH]c5ccccc54)CC3)C(=O)N2CCC(C)(C)C)CC1` (stereo partly drawn) [Compound 22], with 1000 to 5000 nM; and `CC(C)CCN1C(=O)C(CC(=O)N2CCC(N3CCc4ccccc4NC3=O)CC2)SC1c1cccc(C(F)(F)F)c1F` (stereo not drawn) [Compound 23], with below 1000 nM; and `CC(C)N1C(=O)C(CC(=O)N2CCC(N3CCc4ccccc4NC3=O)CC2)SC1c1ccccc1` (stereo not drawn) [Compound 24], with 1000 to 5000 nM.

Take `CC(C)(C)CCN1C(=O)C(CC(=O)N2CCC(N3Cc4ccccc4NC3=O)CC2)SC1c1c(F)cccc1F` (stereo not drawn) [Compound 25]: the IC50 is below 1000 nM.

Turning to `Cc1c(F)cccc1C1SC(CC(=O)N2CCC(N3CCc4ccccc4NC3=O)CC2)C(=O)N1CCC(C)C` (stereo not drawn) [Compound 26], the half-inhibitory concentration (IC50) is below 1000 nM.

Take `CC(=O)N1CC2(CCN(C(=O)CC3SC(c4ccccc4)N(CCC(C)C)C3=O)CC2)c2cc(C(C)C)ccc21` (stereo not drawn) [Compound 27]: the IC50 was above 5000 nM.

For `CC(C)CCN1C(=O)C(CC(=O)N2CCC3(CC2)C(=O)N(C)c2ccccc23)SC1c1ccccc1` (stereo not drawn) [Compound 29], the 50% inhibitory concentration (IC50) was above 5000 nM. Then `CC(C)(C)CCN1C(=O)C(CC(=O)N2CCC(N3Cc4ccccc4NC3=O)CC2)SC12CCSCC2` (stereo not drawn) [Compound 31], with below 1000 nM; and `CC(C)CCN1C(=O)C(CC(=O)N2CCC(N3Cc4ccccc4NC3=O)CC2)SC12CCCCCC2` (stereo not drawn) [Compound 32], with below 1000 nM; and `CN1CCN(c2ccccc2C2SC(CC(=O)N3CCC(N4CCc5ccccc5NC4=O)CC3)C(=O)N2CCC(C)(C)C)CC1` (stereo not drawn) [Compound 34], with below 1000 nM. As for `O=C(CC1SC(c2ccccc2)N(CC(F)(F)C(F)(F)F)C1=O)N1CCC(N2Cc3ccccc3NC2=O)CC1` (stereo not drawn) [Compound 36], the figure is below 1000 nM; as for `CCCN1C(=O)C(CC(=O)N2CCC(N3CCc4ccccc4NC3=O)CC2)SC1c1ccccc1` (stereo not drawn) [Compound 38], below 1000 nM; as for `O=C(CC1SC(c2ccccc2)N(Cc2ccncc2)C1=O)N1CCC(N2Cc3ccccc3NC2=O)CC1` (stereo not drawn) [Compound 46], 1000 to 5000 nM. As for `CN1CCN(c2ccccc2[C@H]2SC(CC(=O)N3CCC(n4c(=O)[nH]c5ncccc54)CC3)C(=O)N2CCC(C)(C)C)CC1` (stereo partly drawn) [Compound 47], the figure is below 1000 nM; as for `Cc1cc(C)c(C2SC(CC(=O)N3CCC(N4Cc5ccccc5NC4=O)CC3)C(=O)N2CCC(C)C)c(C)c1` (stereo not drawn) [Compound 51], below 1000 nM; as for `COC(=O)[C@H](CC1CCCCC1)N1C(=O)C(CC(=O)N2CCC(N3Cc4ccccc4NC3=O)CC2)SC1c1ccccc1` (stereo partly drawn) [Compound 55], 1000 to 5000 nM. In the case of `CC(C)(C)CCN1C(=O)C(CC(=O)N2CCC(N3CCc4ccccc4NC3=O)CC2)SC12CCCCCC2` (stereo not drawn) [Compound 57], the IC50 was below 1000 nM. As for `CC(C)CCN1C(=O)C(CC(=O)N2CCC(n3c(=O)[nH]c4ncccc43)CC2)SC1c1ccccc1N1CCN(C)CC1` (stereo not drawn) [Compound 59], the figure is below 1000 nM; as for `CC(C)CCN1C(=O)C(CC(=O)N2CCC(N3CCc4ccccc4NC3=O)CC2)SC1c1ccccc1OCc1ccccc1` (stereo not drawn) [Compound 65], below 1000 nM. As for `CC(C)CCN1C(=O)C(CC(=O)N2CCC(n3c(=O)[nH]c4ncccc43)CC2)SC1c1ccccc1` (stereo not drawn) [Compound 69], the figure is below 1000 nM; as for `CCCCCCCC1SC(CC(=O)N2CCC(N3Cc4ccccc4NC3=O)CC2)C(=O)N1CCC(C)C` (stereo not drawn) [Compound 71], above 5000 nM. Take `Cc1ccc(C2SC(CC(=O)N3CCC(N4CCc5ccccc5NC4=O)CC3)C(=O)N2CCC(C)C)c(C)c1` (stereo not drawn) [Compound 73]: the IC50 was below 1000 nM. Turning to `CCCCCCCC1SC(CC(=O)N2CCC(N3CCc4ccccc4NC3=O)CC2)C(=O)N1CCC(C)C` (stereo not drawn) [Compound 74], the half-inhibitory concentration (IC50) was in the range of 1000 to 5000 nM. For the compound `CC(C)CCN1C(=O)C(CC(=O)N2CCC(N3Cc4ccccc4NC3=O)CC2)SC1C(C)(C)C` (stereo not drawn) [Compound 75], the IC50 lay in the range of 1000 to 5000 nM. As for `CN1CCCC1CCN1C(=O)C(CC(=O)N2CCC(N3Cc4ccccc4NC3=O)CC2)SC1c1ccccc1` (stereo not drawn) [Compound 77], the figure is above 5000 nM; as for `CCN(CC)CCN1C(=O)C(CC(=O)N2CCC(N3Cc4ccccc4NC3=O)CC2)SC1c1ccccc1` (stereo not drawn) [Compound 82], 1000 to 5000 nM. As for `O=C(CC1SC(c2ccccc2)N(CC2CCCO2)C1=O)N1CCC(N2CCc3ccccc3NC2=O)CC1` (stereo not drawn) [Compound 83], the figure is below 1000 nM; as for `CN1CCN(c2ccccc2C2SC(CC(=O)N3CCC(CO)CC3)C(=O)N2CCC(C)(C)C)CC1` (stereo not drawn) [Compound 85], above 5000 nM; as for `CC(C)CCN1C(=O)C(CC(=O)N2CCC(N3Cc4ccccc4NC3=O)CC2)SC12CCCCC2` (stereo not drawn) [Compound 86], 1000 to 5000 nM. Then `CC(C)CCN1C(=O)C(CC(=O)N2CCC(N3CCc4ccccc4NC3=O)CC2)SC1c1c(Cl)cccc1Cl` (stereo not drawn) [Compound 89], with below 1000 nM; and `CC(C)CCN1C(=O)C(CC(=O)N2CCC(N3CCc4ccccc4NC3=O)CC2)SC12CCCCCC2` (stereo not drawn) [Compound 91], with below 1000 nM; and `O=C(CC1SC(c2cccc(F)c2F)N(CC2CCCCC2)C1=O)N1CCC(N2Cc3ccccc3NC2=O)CC1` (stereo not drawn) [Compound 92], with below 1000 nM. Regarding `CC(C)(C)CCN1C(=O)C(CC(=O)N2CCC(N3Cc4ccccc4NC3=O)CC2)SC1c1cccc2cc[nH]c12` (stereo not drawn) [Compound 94], the IC50 is above 5000 nM.

Take `CC(C)CCN1C(=O)C(CC(=O)N2CCC(N3Cc4ccccc4NC3=O)CC2)SC1C1CCCCC1` (stereo not drawn) [Compound 95]: the IC50 was below 1000 nM.

Turning to `C=CCN1C(=O)C(CC(=O)N2CCC(N3CCc4ccccc4NC3=O)CC2)SC1c1ccccc1` (stereo not drawn) [Compound 96], the IC50 is 1000 to 5000 nM. `CN1CCN(c2ccccc2[C@H]2SC(CC(=O)N3CCCCC3)C(=O)N2CCC(C)(C)C)CC1` (stereo partly drawn) [Compound 97]: the IC50 is above 5000 nM. For `CC(C)CCN1C(=O)C(CC(=O)N2CCC(N3CCc4ccccc4NC3=O)CC2)SC1Cc1ccccc1` (stereo not drawn) [Compound 98], the IC50 was in the range of 1000 to 5000 nM. Then `CC1=CCCC(C)C1C1SC(CC(=O)N2CCC(N3Cc4ccccc4NC3=O)CC2)C(=O)N1CCC(C)C` (stereo not drawn) [Compound 100], with below 1000 nM. As for `CC(C)CCN1C(=O)C(CC(=O)N2CCC(N3Cc4ccccc4NC3=O)CC2)SC1C(C)c1ccccc1` (stereo not drawn) [Compound 101], the figure is above 5000 nM. Then `CCCOc1ccc(C2SC(CC(=O)N3CCC(N4Cc5ccccc5NC4=O)CC3)C(=O)N2CCC(C)C)cc1` (stereo not drawn) [Compound 103], with above 5000 nM. Take `O=C(CC1SC(c2ccccc2)N(Cc2ccncc2)C1=O)N1CCC(n2c(=O)[nH]c3ccccc32)CC1` (stereo not drawn) [Compound 108]: the IC50 is above 5000 nM. `CC(C)CCN1C(=O)C(CC(=O)N2CCC3(CC2)C(=O)Nc2ccccc23)SC1c1ccccc1` (stereo not drawn) [Compound 111]: the IC50 was above 5000 nM.

In the case of `CC(C)CCN1C(=O)C(CC(=O)N2CCC(n3cc(-c4ccccc4)[nH]c3=O)CC2)SC1c1ccc(Cl)cc1` (stereo not drawn) [Compound 112], the IC50 was above 5000 nM. `CC(C)CCN1C(=O)C(CC(=O)N2CCC(N3Cc4ccccc4NC3=O)CC2)SC1c1ccccc1N(C)C` (stereo not drawn) [Compound 121]: the IC50 was below 1000 nM.

As to `Cc1cccc(C)c1C1SC(CC(=O)N2CCC(N3CCc4ccccc4NC3=O)CC2)C(=O)N1CCC(C)C` (stereo not drawn) [Compound 123], the IC50 is below 1000 nM.

`CC(C)CCN1C(=O)C(CC(=O)N2CCC(N3Cc4ccccc4NC3=O)CC2)SC1c1ccc(N(C)C)cc1` (stereo not drawn) [Compound 124]: the IC50 lay in the range of 1000 to 5000 nM.

On to `CC(C)CCN1C(=O)C(CC(=O)N2CCC(N3CCc4ccccc4NC3=O)CC2)SC1c1cccnc1N1CCOCC1` (stereo not drawn) [Compound 125], for which the IC50 was below 1000 nM. With `O=C(CC1SC(c2ccccc2F)N(CC2CCCCC2)C1=O)N1CCC(N2Cc3ccccc3NC2=O)CC1` (stereo not drawn) [Compound 126], the IC50 is below 1000 nM. As for `CC(C)(C)CCN1C(=O)C(CC(=O)N2CCC(N3CCc4ccccc4NC3=O)CC2)SC1c1cccc2cc[nH]c12` (stereo not drawn) [Compound 130], the figure is 1000 to 5000 nM.

These data come from US8163737B2 (Vertex Pharmaceuticals Incorporated, priority 2006, dated 2012).
